{
  "source": "paper PMC3638638",
  "about": "“Metabonomics Combined with UPLC-MS Chemical Profile for Discovery of Antidepressant Ingredients of a Traditional Chinese Medicines Formula, Chaihu-Shu-Gan-San” (Evidence-based Complementary and Alternative Medicine : eCAM, 2013)",
  "key": {"[1]": {"biological_target": "T1, rat MAO-A (Rattus norvegicus, UniProt P21396)", "T1 sequence (P21396 1-526)": "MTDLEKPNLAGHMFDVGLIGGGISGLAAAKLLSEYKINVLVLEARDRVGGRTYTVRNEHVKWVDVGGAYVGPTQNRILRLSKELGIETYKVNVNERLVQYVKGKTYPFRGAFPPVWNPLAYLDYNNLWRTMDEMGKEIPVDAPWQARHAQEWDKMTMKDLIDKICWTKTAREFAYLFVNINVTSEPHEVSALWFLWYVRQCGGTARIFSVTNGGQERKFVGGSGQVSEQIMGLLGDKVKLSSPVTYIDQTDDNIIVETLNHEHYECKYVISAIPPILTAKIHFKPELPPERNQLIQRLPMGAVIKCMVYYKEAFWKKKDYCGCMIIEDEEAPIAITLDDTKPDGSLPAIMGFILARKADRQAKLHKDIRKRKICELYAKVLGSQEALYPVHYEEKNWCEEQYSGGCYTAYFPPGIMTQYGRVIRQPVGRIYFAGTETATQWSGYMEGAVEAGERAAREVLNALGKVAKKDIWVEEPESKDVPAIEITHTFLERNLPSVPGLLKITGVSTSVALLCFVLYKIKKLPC", "assay": "Monoamine oxidase A (MAO-A) activity assay, spectrophotometric enzymatic kit", "format": "biochemical", "procedure": "MAO was purified from the rat liver according to the Gómez method after minor modification. The liver tissue was rapidly removed into ice cold homogenized (1 : 10, w/v) in 50 mM KH2PO4 buffer, pH 7.2, containing […]. Following centrifugation at 1000 g for 10 min, the supernatant was centrifuged at 10,000 g for 30 min to obtain crude mitochondrial pellet.\nThe MAO-A activity was measured by spectrophotometrically (Mapada, UV-3100, China) using enzymatic kits according to the instructions (Nanjing Jiancheng Institute of Biotechnology). IC50 values were used to estimate the inhibition calculated in relation to a sample of the enzyme treated under the same conditions without inhibitor, versus inhibitor concentration."}, "[2]": {"parameters": "method as in PMID 3435494, PMID 20515525", "conditions": "must be hydrolyzed by gut microflora enzymes to aglycone naringenin; cited from earlier work"}, "[3]": {"tested_on": "CUMS treated rats", "assay": "Ethological study of antidepressant effect on CUMS rat model (body weight, open-field test, sucrose consumption)", "format": "in vivo", "conditions": "n=8", "procedure": "40 healthy, adult, male Wistar rats, weighing 200 ± 20 g each, were purchased from the Institute of Laboratory Animal Science, CAMS and PUMC (Beijing, China). The rats were housed individually in cages for one week to adapt to the environment under controlled conditions of 12 h light–12 h dark cycles (lights on from 6:00 a.m. to 6:00 p.m.), […], and temperature (20 ± 3°C) with commercial diet and water available ad libitum. All experimental procedures were approved by the Ethics Committee of the Institute of Medicinal Plant Development, CAMS & PUMC.\nAll rats except control group were subjected to a series of variable stimuli as previously described after minor modification.\nThe antidepressant effects of CSGS and QZ extracts were evaluated on a CUMS rat model, a well-validated animal model of depression (see supplementary material Table S1 available online at http://dx.doi.org/10.1155/2013/487158)."}, "[4]": {"conditions": "rat MAO-A as enzyme source (rat liver mitochondrial pellet)"}, "[5]": {"conditions": "rat MAO-A as enzyme source (rat liver mitochondrial pellet), read-out: IC50, inhibition against MAO-A activity"}},
  "note": "Counter-ions that a name gives are not always drawn. Like-named read-outs stand apart in the source and are kept apart here.",
  "data": [
    {"smiles": "COc1ccc([C@@H]2CC(=O)c3c(O)cc(O[C@@H]4O[C@H](CO)[C@@H](O)[C@H](O)[C@H]4O[C@@H]4O[C@@H](C)[C@H](O)[C@@H](O)[C@H]4O)cc3O2)cc1O", "note": "[Neohesperidin]", "values": [
      {"measurement": "IC50, inhibition against MAO-A activity", "setting": "[1]; [4]", "value": "relatively weak"},
      {"measurement": "IC50", "setting": "[1]; [5]", "value": 93.8, "unit": "µM"}
    ]},
    {"smiles": "CNCC(O)c1ccc(O)cc1", "note": "(stereo not drawn) [Synephrine]", "values": [
      {"measurement": "IC50", "setting": "[1]", "value": 15.2, "unit": "µM"},
      {"measurement": "IC50, inhibition against MAO-A activity", "setting": "[1]; [4]", "value": "relatively weak"}
    ]},
    {"smiles": "C[C@@H]1O[C@@H](O[C@H]2[C@H](Oc3cc(O)c4c(c3)O[C@H](c3ccc(O)cc3)CC4=O)O[C@H](CO)[C@@H](O)[C@@H]2O)[C@H](O)[C@H](O)[C@H]1O", "note": "[Naringin]", "values": [
      {"measurement": "IC50", "setting": "[1]", "value": 5.82, "unit": "µM"},
      {"measurement": "Absorption from the gastrointestinal tract in its original form", "setting": "[2]", "value": "poorly absorbed"}
    ]},
    {"smiles": "COc1ccc([C@@H]2CC(=O)c3c(O)cc(O[C@@H]4O[C@H](CO[C@@H]5O[C@@H](C)[C@H](O)[C@@H](O)[C@H]5O)[C@@H](O)[C@H](O)[C@H]4O)cc3O2)cc1O", "note": "[Hesperidin]", "values": [
      {"measurement": "IC50, inhibition against MAO-A activity", "setting": "[1]; [4]", "value": "relatively weak"},
      {"measurement": "IC50", "setting": "[1]; [5]", "value": 26.7, "unit": "µM"}
    ]},
    {"smiles": "CNCCC(Oc1ccc(C(F)(F)F)cc1)c1ccccc1", "note": "(stereo not drawn) [Positive control, Fluoxetine hydrochloride]", "values": [
      {"measurement": "Body weight, 0W", "setting": "[3]; 0W (baseline), mean", "value": 191.702, "unit": "g"},
      {"measurement": "Sucrose consumption, 4W", "setting": "[3]; 4W of treatment", "value": 17.5, "unit": "g"},
      {"measurement": "Open-field test (OFT), 0W", "setting": "[3]; horizontal movements, 0W (baseline), mean", "value": 81.7},
      {"measurement": "Open-field test (OFT), 4W", "setting": "[3]; horizontal movements, 4W of treatment, mean", "value": 61.4}
    ]}
  ]
}
